ChEMBL document CHEMBL4043113, “A novel antihypertension agent, sargachromenol D from marine brown algae, Sargassum siliquastrum, exerts dual action as an L-type Ca2+ channel blocker and endothelin A/B2 receptor antagonist” (Bioorg Med Chem, 2017)
Activity calls are given as the source filed them. No cut-off for these calls is given here.

Key:
[1] = organism: Oryctolagus cuniculus; test: (§1) Antagonist activity at New Zealand rabbit endothelin A/B2 receptor assessed as dilation of endothelin-1 induced basilary artery contraction measured after 20 mins
[2] = Antagonist activity at New Zealand rabbit L-type calcium channel assessed as dilation of K+-depolarization induced basilary artery contraction measured after 20 mins; parameters: species or system Oryctolagus cuniculus
[3] = as §1; parameters: species or system Oryctolagus cuniculus

| Activity [1] | EC50 [2] | EC50 [3] | SMILES |
| --- | --- | --- | --- |
| inactive |  |  | CC(=O)CC/C=C(\C)CCC/C(C)=C\C(=O)CC(C)C |
| inactive | 3520 nM |  | C/C(=C\CCC(C)O)CCC/C(C)=C/C(=O)CC(C)C (stereo unspecified) |

The remaining lines, values behind:

| SMILES | Activity [1] | EC50 [2] | EC50 [3] |
| --- | --- | --- | --- |
| CC(=O)CC/C=C(\C)CCC/C(C)=C/C(=O)CC(C)C | inactive |  |  |
| COCCOC(=O)C1=C(C)NC(C)=C(C(=O)OC(C)C)C1c1cccc([N+](=O)[O-])c1 (stereo unspecified) [NIMODIPINE] |  | 520 nM |  |
| COc1ccccc1Oc1c(NS(=O)(=O)c2ccc(C(C)(C)C)cc2)nc(-c2ncccn2)nc1OCCO [BOSENTAN] |  |  | 530 nM |
